Laboratory results published in patent US9266892B2, “Fused pyrazoles as FGFR inhibitors” (Incyte Corporation, priority 2012, dated 2016).

What was measured:
Type in all cases: biochemical
FGFR2 = molecular target: T1, FGFR2 (Homo sapiens, UniProt P21802); experiment: FGFR Enzymatic Assay (FRET peptide phosphorylation), FGFR2; settings: FGFR2 0.01 nM, ATP 100 μM
T1 construct: purchased Millipore or Invitrogen
Summary of the method: (§1)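 Human FGFR1 (0.02 nM) and FGFR2 (0.01 nM) were pre-incubated with compound for 5-10 min in HEPES buffer pH 7.5, then reacted at 25 °C for 1 hr with 500 nM biotinylated peptide and ATP (FGFR1 210 μM; FGFR2 100 μM). Phosphopeptide was detected by Eu-PY20/APC-streptavidin TR-FRET after EDTA quench. IC50 came from variable-slope sigmoidal fits.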

FGFR1 = molecular target: T2, FGFR1 (Homo sapiens, UniProt P11362); experiment: FGFR Enzymatic Assay (FRET peptide phosphorylation), FGFR1; settings: FGFR1 0.02 nM, ATP 210 μM
T2 construct: purchased Millipore or Invitrogen
Summary of the method: as §1

FGFR3 = molecular target: T3, FGFR3 (Homo sapiens, UniProt P22607); experiment: FGFR Enzymatic Assay (FRET peptide phosphorylation), FGFR3; settings: ATP 140 μM, 25° C. for 1 hr
T3 construct: purchased Millipore
Summary of the method: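 FGFR3 in 50 mM HEPES pH 7.5, 10 mM […]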

T1 sequence (P21802 22-821): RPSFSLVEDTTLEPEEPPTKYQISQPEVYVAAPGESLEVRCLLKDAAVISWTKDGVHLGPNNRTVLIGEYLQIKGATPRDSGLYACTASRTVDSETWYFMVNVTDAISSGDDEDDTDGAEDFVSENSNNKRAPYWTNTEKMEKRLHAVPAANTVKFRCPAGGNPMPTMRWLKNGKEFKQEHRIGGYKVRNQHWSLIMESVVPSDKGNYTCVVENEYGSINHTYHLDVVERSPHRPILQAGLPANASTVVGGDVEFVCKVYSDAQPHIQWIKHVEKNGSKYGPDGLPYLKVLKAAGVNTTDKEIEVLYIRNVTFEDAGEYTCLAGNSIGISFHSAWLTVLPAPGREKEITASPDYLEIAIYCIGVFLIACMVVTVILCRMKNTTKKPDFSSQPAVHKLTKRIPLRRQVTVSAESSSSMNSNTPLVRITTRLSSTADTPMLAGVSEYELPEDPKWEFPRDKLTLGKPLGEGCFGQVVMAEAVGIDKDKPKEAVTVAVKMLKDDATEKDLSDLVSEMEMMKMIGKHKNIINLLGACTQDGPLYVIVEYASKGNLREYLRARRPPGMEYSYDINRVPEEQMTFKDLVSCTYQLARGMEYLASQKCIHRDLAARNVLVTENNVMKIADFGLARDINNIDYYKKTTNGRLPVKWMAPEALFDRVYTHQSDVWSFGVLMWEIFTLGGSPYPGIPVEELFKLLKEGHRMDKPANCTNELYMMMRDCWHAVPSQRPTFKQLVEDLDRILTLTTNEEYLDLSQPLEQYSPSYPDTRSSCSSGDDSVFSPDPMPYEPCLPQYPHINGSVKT
T3 sequence (P22607 23-806): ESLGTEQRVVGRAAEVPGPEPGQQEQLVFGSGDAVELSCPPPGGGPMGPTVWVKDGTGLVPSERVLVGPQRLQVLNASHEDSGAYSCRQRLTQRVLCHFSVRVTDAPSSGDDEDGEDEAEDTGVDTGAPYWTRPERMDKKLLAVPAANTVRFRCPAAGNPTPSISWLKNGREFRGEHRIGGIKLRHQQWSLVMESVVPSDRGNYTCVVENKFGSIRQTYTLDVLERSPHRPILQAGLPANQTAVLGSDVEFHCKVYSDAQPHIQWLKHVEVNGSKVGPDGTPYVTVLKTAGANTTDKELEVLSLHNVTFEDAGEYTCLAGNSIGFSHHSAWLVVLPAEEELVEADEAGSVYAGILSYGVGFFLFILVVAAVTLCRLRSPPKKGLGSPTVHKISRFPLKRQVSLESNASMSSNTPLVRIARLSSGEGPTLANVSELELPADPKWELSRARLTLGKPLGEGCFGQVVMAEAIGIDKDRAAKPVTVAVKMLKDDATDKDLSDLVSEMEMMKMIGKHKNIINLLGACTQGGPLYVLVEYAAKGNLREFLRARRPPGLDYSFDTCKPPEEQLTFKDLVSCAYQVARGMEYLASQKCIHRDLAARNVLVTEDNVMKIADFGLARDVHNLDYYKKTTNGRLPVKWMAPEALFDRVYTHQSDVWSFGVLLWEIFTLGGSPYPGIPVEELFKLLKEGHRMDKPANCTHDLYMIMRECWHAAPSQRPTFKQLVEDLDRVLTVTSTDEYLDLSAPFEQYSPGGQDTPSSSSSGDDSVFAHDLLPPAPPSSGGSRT
T2 sequence (P11362 22-822): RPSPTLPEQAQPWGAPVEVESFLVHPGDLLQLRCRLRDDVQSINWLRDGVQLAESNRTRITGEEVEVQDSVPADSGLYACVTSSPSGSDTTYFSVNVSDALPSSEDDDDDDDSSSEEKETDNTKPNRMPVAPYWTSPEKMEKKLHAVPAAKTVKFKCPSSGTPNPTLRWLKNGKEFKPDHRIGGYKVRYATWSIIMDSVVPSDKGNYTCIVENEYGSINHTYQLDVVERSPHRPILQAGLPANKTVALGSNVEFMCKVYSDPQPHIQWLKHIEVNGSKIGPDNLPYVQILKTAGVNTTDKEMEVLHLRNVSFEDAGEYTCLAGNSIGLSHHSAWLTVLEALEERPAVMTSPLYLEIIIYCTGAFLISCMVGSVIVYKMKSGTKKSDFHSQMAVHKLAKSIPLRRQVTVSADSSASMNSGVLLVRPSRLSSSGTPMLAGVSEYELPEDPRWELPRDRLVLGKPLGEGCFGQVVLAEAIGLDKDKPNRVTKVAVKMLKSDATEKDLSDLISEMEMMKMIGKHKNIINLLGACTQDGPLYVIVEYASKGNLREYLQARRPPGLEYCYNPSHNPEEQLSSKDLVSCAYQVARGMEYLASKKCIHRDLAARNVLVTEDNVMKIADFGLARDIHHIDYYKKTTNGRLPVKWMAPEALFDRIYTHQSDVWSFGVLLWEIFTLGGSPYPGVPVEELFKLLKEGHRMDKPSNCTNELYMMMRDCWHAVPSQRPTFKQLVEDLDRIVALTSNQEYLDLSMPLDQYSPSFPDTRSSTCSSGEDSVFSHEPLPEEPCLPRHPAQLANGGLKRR

Row | IC50 (FGFR2) | IC50 (FGFR1) | IC50 (FGFR3) | SMILES
1 | < 100 nM | < 100 nM | < 100 nM | COc1cc(OC)c(Cl)c(-c2ncc3c(-c4ccc(N5CCN(C)CC5)cc4)n[nH]c3n2)c1Cl [Example 75, 6-(2,6-Dichloro-3,5-dimethoxyphenyl)-3-[4-(4-methylpiperazin-1-yl)phenyl]-1H-pyrazolo[3,4-d]pyrimidine]
2 | < 100 nM | < 100 nM | < 100 nM | COc1cc(OC)c(F)c(-c2cc3[nH]nc(-c4ccc5c(c4)CCC(C(=O)N(C)C)O5)c3cn2)c1F (stereo not drawn) [Example 57, 6-[6-(2,6-Difluoro-3,5-dimethoxyphenyl)-1H-pyrazolo[4,3-c]pyridin-3-yl]-N,N-dimethylchromane-2-carboxamide]
3 | < 100 nM | < 100 nM | < 100 nM | COc1cc(OC)c(F)c(-c2ncc3c(-c4ccc5c(c4)CN(CCN(C)C)C5=O)n[nH]c3n2)c1F [Example 80, 5-[6-(2,6-Difluoro-3,5-dimethoxyphenyl)-1H-pyrazolo[3,4-d]pyrimidin-3-yl]-2-[2-(dimethylamino)ethyl]isoindolin-1-one]
4 | < 100 nM | < 100 nM | < 100 nM | COc1cc(OC)c(F)c(-c2ncc3c(-c4ccc5c(c4)CN([C@H]4CC[C@H](O)CC4)C5=O)n[nH]c3n2)c1F [Example 15, 5-[6-(2,6-Difluoro-3,5-dimethoxyphenyl)-1H-pyrazolo[3,4-d]pyrimidin-3-yl]-2-(trans-4-hydroxycyclohexyl)isoindolin-1-one]
5 | < 100 nM | < 100 nM | < 100 nM | COC(=O)c1cc2cc(-c3n[nH]c4cc(-c5c(F)c(OC)cc(OC)c5F)ncc34)ccc2o1 [Example 92, Methyl 5-[6-(2,6-difluoro-3,5-dimethoxyphenyl)-1H-pyrazolo[4,3-c]pyridin-3-yl]-1-benzofuran-2-carboxylate]
6 | < 100 nM | < 100 nM | < 100 nM | COc1cc(OC)c(Cl)c(-c2cc3[nH]nc(-c4ccc(OCC(=O)N(C)C)c(C)c4)c3cn2)c1Cl [Example 29, 2-{4-[6-(2,6-Dichloro-3,5-dimethoxyphenyl)-1H-pyrazolo[4,3-c]pyridin-3-yl]-2-methylphenoxy}-N,N-dimethylacetamide]
7 | < 100 nM | < 100 nM | < 100 nM | COc1cc(OC)c(Cl)c(-c2cc3[nH]nc(/C=C/c4cnn(CCO)c4)c3cn2)c1Cl [Example 50, 2-(4-{(E)-2-[6-(2,6-Dichloro-3,5-dimethoxyphenyl)-1H-pyrazolo[4,3-c]pyridin-3-yl]vinyl}-1H-pyrazol-1-yl)ethanol]
8 | < 100 nM | < 100 nM | < 100 nM | COc1cc(OC)c(Cl)c(-c2cc3[nH]nc(-c4ccc(OCCN(C)C)cc4)c3cn2)c1Cl [Example 35, 2-{4-[6-(2,6-Dichloro-3,5-dimethoxyphenyl)-1H-pyrazolo[4,3-c]pyridin-3-yl]phenoxy}-N,N-dimethylethanamine]
9 | < 100 nM | < 100 nM | < 100 nM | COc1cc(OC)c(F)c(-c2ncc3c(-c4ccc5c(c4)CN(C(C)CO)C5=O)n[nH]c3n2)c1F (stereo not drawn) [Example 81, 5-[6-(2,6-Difluoro-3,5-dimethoxyphenyl)-1H-pyrazolo[3,4-d]pyrimidin-3-yl]-2-(2-hydroxy-1-methylethyl)isoindolin-1-one]
10 | < 100 nM | < 100 nM | < 100 nM | COc1cc(OC)c(F)c(-c2ncc3c(-c4ccc5ncccc5c4)n[nH]c3n2)c1F [Example 94, 6-[6-(2,6-Difluoro-3,5-dimethoxyphenyl)-1H-pyrazolo[3,4-d]pyrimidin-3-yl]quinoline]
11 | < 100 nM | < 100 nM | < 100 nM | COc1cc(OC)c(F)c(-c2ncc3c(-c4ccnc(N5CCN(C)CC5)c4)n[nH]c3n2)c1F [Example 19, 6-(2,6-Difluoro-3,5-dimethoxyphenyl)-3-[2-(4-methylpiperazin-1-yl)pyridin-4-yl]-1H-pyrazolo[3,4-d]pyrimidine]
12 | < 100 nM | < 100 nM | < 100 nM | COc1cc(OC)c(F)c(-c2ncc3c(-c4ccc5c(c4)CN(C4CCN(C)CC4)C5=O)n[nH]c3n2)c1F [Example 79, 5-[6-(2,6-Difluoro-3,5-dimethoxyphenyl)-1H-pyrazolo[3,4-d]pyrimidin-3-yl]-2-(1-methylpiperidin-4-yl)isoindolin-1-one]
13 | < 100 nM | < 100 nM | < 100 nM | COc1cc(OC)c(Cl)c(-c2ncc3c(-c4ccc5c(c4)CN([C@H]4CC[C@@H](O)CC4)C5=O)n[nH]c3n2)c1Cl [Example 22, 5-[6-(2,6-Dichloro-3,5-dimethoxyphenyl)-1H-pyrazolo[3,4-d]pyrimidin-3-yl]-2-(cis-4-hydroxycyclohexyl)isoindolin-1-one]
14 | < 100 nM | < 100 nM | < 100 nM | COc1cc(OC)c(Cl)c(-c2ncc3c(-c4ccc5c(c4)CCN(C)C5=O)n[nH]c3n2)c1Cl [Example 9, 6-[6-(2,6-Dichloro-3,5-dimethoxyphenyl)-1H-pyrazolo[3,4-d]pyrimidin-3-yl]-2-methyl-3,4-dihydroisoquinolin-1(2H)-one]
15 | < 100 nM | < 100 nM | < 100 nM | COc1cc(OC)c(F)c(-c2ncc3c(-c4ccc5c(c4)CN([C@H]4CC[C@@H](O)CC4)C5=O)n[nH]c3n2)c1F [Example 16, 5-[6-(2,6-Difluoro-3,5-dimethoxyphenyl)-1H-pyrazolo[3,4-d]pyrimidin-3-yl]-2-(cis-4-hydroxycyclohexyl)isoindolin-1-one]
16 | < 100 nM | < 100 nM | < 100 nM | COc1cc(OC)c(F)c(-c2ncc3c(-c4cnn(C)c4)n[nH]c3n2)c1F [Example 87, 6-(2,6-Difluoro-3,5-dimethoxyphenyl)-3-(1-methyl-1H-pyrazol-4-yl)-1H-pyrazolo[3,4-d]pyrimidine]
17 | < 100 nM | < 100 nM | < 100 nM | COc1cc(OC)c(Cl)c(-c2ccc3c(-c4ccc5c(c4)CN(C4CC4)C5=O)n[nH]c3n2)c1F [Example 89, 5-[6-(2-Chloro-6-fluoro-3,5-dimethoxyphenyl)-1H-pyrazolo[3,4-b]pyridin-3-yl]-2-cyclopropylisoindolin-1-one]
18 | < 100 nM | < 100 nM | < 100 nM | COc1cc(OC)c(Cl)c(-c2cc3[nH]nc(-c4ccc5c(c4)COC5=O)c3cn2)c1Cl [Example 32, 5-[6-(2,6-Dichloro-3,5-dimethoxyphenyl)-1H-pyrazolo[4,3-c]pyridin-3-yl]-2-benzofuran-1(3H)-one]
19 | < 100 nM | < 100 nM | < 100 nM | COc1cc(OC)c(Cl)c(-c2cc3[nH]nc(-c4cnn(C(C)C#N)c4)c3cn2)c1Cl (stereo not drawn) [Example 33, 2-{4-[6-(2,6-Dichloro-3,5-dimethoxyphenyl)-1H-pyrazolo[4,3-c]pyridin-3-yl]-1H-pyrazol-1-yl}propanenitrile]
20 | < 100 nM | < 100 nM | < 100 nM | COc1cc(OC)c(Cl)c(-c2ncc3c(-c4ccc5c(c4)CN(C4CC4)C5=O)n[nH]c3n2)c1Cl [Example 74, 2-Cyclopropyl-5-[6-(2,6-dichloro-3,5-dimethoxyphenyl)-1H-pyrazolo[3,4-d]pyrimidin-3-yl]isoindolin-1-one]
21 | < 100 nM | < 100 nM | < 100 nM | CCN1Cc2cc(-c3n[nH]c4cc(-c5c(F)c(OC)cc(OC)c5Cl)ncc34)ccc2C1=O [Example 69, 5-[6-(2-chloro-6-fluoro-3,5-dimethoxyphenyl)-1H-pyrazolo[4,3-c]pyridin-3-yl]-2-ethylisoindolin-1-one]
22 | < 100 nM | < 100 nM | < 100 nM | COc1cc(OC)c(F)c(-c2cc3[nH]nc(-c4ccc5c(c4)CN(C4CCN(C)CC4)C5=O)c3cn2)c1F [Example 66, 5-[6-(2,6-Difluoro-3,5-dimethoxyphenyl)-1H-pyrazolo[4,3-c]pyridin-3-yl]-2-(1-methylpiperidin-4-yl)isoindolin-1-one]
23 | < 100 nM | < 100 nM | < 100 nM | COc1cc(OC)c(Cl)c(-c2ncc3c(-c4ccc5c(c4)CC(C(=O)N(C)C)O5)n[nH]c3n2)c1Cl (stereo not drawn) [Example 1, 5-[6-(2,6-Dichloro-3,5-dimethoxyphenyl)-1H-pyrazolo[3,4-d]pyrimidin-3-yl]-N,N-dimethyl-2,3-dihydro-1-benzofuran-2-carboxamide]
24 | < 100 nM | < 100 nM | < 100 nM | COc1cc(OC)c(F)c(-c2ncc3c(-c4ccc5c(c4)CN(C(C)C)C5=O)n[nH]c3n2)c1F [Example 78, 5-[6-(2,6-Difluoro-3,5-dimethoxyphenyl)-1H-pyrazolo[3,4-d]pyrimidin-3-yl]-2-isopropylisoindolin-1-one]
25 | < 100 nM | < 100 nM | < 100 nM | COc1cc(OC)c(Cl)c(-c2ncc3c(-c4ccc5c(c4)CCN(C(C)C)C5=O)n[nH]c3n2)c1Cl [Example 11, 6-[6-(2,6-Dichloro-3,5-dimethoxyphenyl)-1H-pyrazolo[3,4-d]pyrimidin-3-yl]-2-isopropyl-3,4-dihydroisoquinolin-1(2H)-one]
26 | < 100 nM | < 100 nM | < 100 nM | COc1cc(OC)c(F)c(-c2cc3[nH]nc(-c4cnn(CCO)c4)c3cn2)c1F [Example 88, 2-{4-[6-(2,6-Difluoro-3,5-dimethoxyphenyl)-1H-pyrazolo[4,3-c]pyridin-3-yl]-1H-pyrazol-1-yl}ethanol]
27 | < 100 nM | < 100 nM | < 100 nM | COc1cc(OC)c(Cl)c(-c2cc3[nH]nc(-c4ccc5c(c4)CN(C4CC4)C5=O)c3cn2)c1Cl [Example 28, 2-Cyclopropyl-5-[6-(2,6-dichloro-3,5-dimethoxyphenyl)-1H-pyrazolo[4,3-c]pyridin-3-yl]isoindolin-1-one]
